The values that follow come from patent US4492694A, “Indolylglycyl cephalosporin derivatives” (Eli Lilly and Company, priority 1983, dated 1985).

In general, MIC refers to the smallest concentration in the dilution series that meets the test's criterion for growth inhibition.

The test system of data set [1] is Enterobacter. The data set is described as follows: Agar dilution MIC. The data set is classed as cell-based. The note with it: for MIC: Enterobacter. (In general: In agar dilution the substance is mixed into plates at graded concentrations.)
The subject of data set [2] is Strep PN. The data set is described as follows: Agar dilution MIC. The data set is classed as cell-based. Particulars: strain PARK.
In data set [3] the test system is Klebsiella. The data set is described as follows: Agar dilution MIC. Type of data set: cell-based.
Data set [4] relates to Salmonella. The data set is described as follows: Agar dilution MIC. The data set is classed as cell-based. The source says:
(§1) A typical and preferred compound provided by this invention is 7-(3-indolylglycylamido)-3-methyl-3-cephem-4-carboxylic acid, the compound illustrated in Example 2. The antibacterial activity of this compound and others of the invention has been determined in standard in vitro agar dilution assays against a variety of gram positive and gram negative microorganisms. The following Table presents typical minimum inhibitory concentrations (MIC's) in μg/ml for several compounds of the invention when evaluated against the indicated microorganisms. MIC's for several known compounds are also presented for comparison.

The test system of data set [5] is Staph. epi. The data set is described as follows: Agar dilution MIC. Type of data set: cell-based. Particulars: for Agar Dilution MIC: strain EPI2.
From the text: as §1

Data set [6] has as its system Staph. aureus. The data set is described as follows: Agar dilution MIC. Type of data set: cell-based. Particulars: Staphylococcus aureus.
Data set [7] relates to E. coli. Nature of the data set: Agar dilution MIC. The data set is classed as cell-based. Particulars: Escherichia coli.
The test system of data set [8] is Strep. A. The data set is described as follows: Agar dilution MIC. The data set is classed as cell-based. Particulars: strain C203.
Data set [9] concerns Strep. D. The data set is described as follows: Agar dilution MIC. The note with it: read-out: Agar Dilution MIC. Type of data set: cell-based.
A short description of data set [10]: Pharmacokinetics, plasma concentration after intravenous dose. The data set is classed as in vivo. Particulars: rat, rats, 20 mg/kg. As to the method: (§2) For example, when 7-(3-indolylglycylamido)-3-methyl-3-cephem-4-carboxylic acid was administered to rats at an intravenous dose of 20 mg/kg, the plasma concentration after one hour was 15.0 μg/ml, and after four hours, 6.0 μg/ml. About 60% of the above compound was recovered in the urine of rats following a 20 mg/kg subcutaneous dose. Less than 5% was recovered from the bile.

A short description of data set [11]: Recovery in urine and bile after subcutaneous dose. Type of data set: in vivo. The note with it: rat, sc, rats, 20 mg/kg. As to the method:
as §2

Data set [12] relates to Shig. sonn. Nature of the data set: Agar dilution MIC. The note with it: strain N9. Type of data set: cell-based.
Where [13] appears, read: strain X68, read-out: Agar Dilution MIC.
The mark [14] stands for this setting: strain X26, read-out: Agar Dilution MIC.
The mark [15] stands for this setting: read-out: Agar Dilution MIC, strain X514.
Setting [16] is: strain 1335, read-out: Agar Dilution MIC.
Setting [17] is: strain EPI1, read-out: Agar Dilution MIC.
Setting [18] is: read-out: Agar Dilution MIC, strain S13E.
The mark [19] stands for this setting: strain X1.1, read-out: Agar Dilution MIC.
The mark [20] stands for this setting: strain X400, read-out: Agar Dilution MIC.
[21] abbreviates: strain V41, read-out: Agar Dilution MIC.

Molecules are shown by their SMILES. ≈ marks a conversion by molar mass, not a printed value. Counter-ions that a name gives are not always drawn. Like-named read-outs stand apart in the source and are kept apart here.

Regarding `N[C@@H](C(=O)N[C@@H]1C(=O)N2C(C(=O)O)=C(Cl)CSC12)c1c[nH]c2ccccc12` (stereo partly drawn) [Ex. 3, D-7-(3-indolylglycylamido)-3-chloro-3-cephem-4-carboxylic acid trifluoroacetate], the MIC was above 128 µg/mL in data set [1] (setting [13]); 0.25 µg/mL in data set [2]; 4 µg/mL in [3] (setting [14]); 16 µg/mL in data set [3] (setting [13]); 16 µg/mL in data set [4] (setting [15]); 16 µg/mL in data set [4] (setting [16]). Moreover, the MIC is 32 µg/mL in [5] (read-out: Agar Dilution MIC, strain EPI2); 16 µg/mL in data set [5] (setting [17]); 32 µg/mL in [6] (read-out: Agar Dilution MIC); 8 µg/mL in data set [6] (setting [18]); 4 µg/mL in data set [6] (setting [19]); 64 µg/mL in [6] (setting [20]). In addition, the minimum inhibitory concentration (MIC) in [7] (strain EC14) amounted to 8 µg/mL; in [7] (strain N10), 16 µg/mL; in data set [7] (strain TEM), 16 µg/mL; in [8], 0.5 µg/mL; in data set [9] (strain 9960), 16 µg/mL; in [9] (strain X66), 16 µg/mL. The “Agar Dilution MIC” value in data set [1] (strain C32) and in data set [1] (strain EB17) was above 128 µg/mL throughout.
For `CC1=C(C(=O)O)N2C(=O)[C@@H](NC(=O)[C@H](N)c3c[nH]c4ccccc34)C2SC1` (stereo partly drawn) [Ex. 2, D-7-(3-Indolylglycylamido)-3-methyl-3-cephem-4-carboxylic acid trifluoroacetate], the concentration at 4 h in data set [10] (four hours) is 6000 ng/mL. Besides, the concentration at 1 h in data set [10] (one hour) was 15000 ng/mL. Further, the MIC was 32 µg/mL in data set [1] (read-out: Agar Dilution MIC, strain X68); above 128 µg/mL in data set [1] (strain C32, read-out: Agar Dilution MIC); 0.5 µg/mL in data set [2]; 16 µg/mL in data set [3] (setting [14]); 32 µg/mL in data set [4] (setting [15]); 128 µg/mL in data set [4] (setting [16]). Further, the MIC in data set [5] (setting [17]) worked out at 16 µg/mL; in [6] (setting [18]), 32 µg/mL; in data set [6] (setting [19]) it was 4 µg/mL; in data set [6] (setting [20]) it was 64 µg/mL; in data set [6] (setting [21]), 8 µg/mL; in data set [7] (strain EC14) it was 32 µg/mL. For the same molecule, the MIC in [7] (strain N10) was determined as 32 µg/mL; in [7] (strain TEM) it was 16 µg/mL; in [8], 0.25 µg/mL; in data set [9], 32 µg/mL; in data set [9] (strain 9960) it was 16 µg/mL. Besides, the “Agar Dilution MIC” value in data set [1] (strain EB17) was above 128 µg/mL; in data set [5], 16 µg/mL. The dose excreted in data set [11] (bile, read-out: recovered from the bile) is below 5%; in data set [11] (urine, read-out: recovered in the urine), around 60%.
`COC1=C(C(=O)O)N2C(=O)[C@@H](NC(=O)[C@H](N)c3c[nH]c4ccccc34)C2SC1` (stereo partly drawn) [Ex. 4, D-7-(3-Indolylglycylamido)-3-methoxy-3-cephem-4-carboxylic acid]: the MIC in data set [1] (setting [13]) is above 128 µg/mL; in [2], 0.5 µg/mL (≈ 1.24 µM); in data set [3] (setting [14]) it was 16 µg/mL (≈ 39.8 µM); in data set [3] (setting [13]), 16 µg/mL (≈ 39.8 µM); in data set [4] (setting [15]), 16 µg/mL (≈ 39.8 µM); in data set [4] (setting [16]), 32 µg/mL (≈ 79.5 µM). Also, the MIC in [5] (setting [17]) stood at 16 µg/mL (≈ 39.8 µM); in data set [6] (read-out: Agar Dilution MIC), 32 µg/mL (≈ 79.5 µM); in data set [6] (setting [18]), 8 µg/mL (≈ 19.9 µM); in [6] (setting [19]), 4 µg/mL (≈ 9.94 µM); in data set [6] (setting [20]) it was 64 µg/mL (≈ 159 µM); in data set [7] (strain EC14), 8 µg/mL (≈ 19.9 µM). In addition, the MIC in [7] (strain N10) is 16 µg/mL (≈ 39.8 µM); in data set [7] (strain TEM), 32 µg/mL (≈ 79.5 µM); in [8] it was 0.25 µg/mL (≈ 0.621 µM); in data set [9] (strain 9960), 16 µg/mL (≈ 39.8 µM); in [9] (strain X66), 64 µg/mL (≈ 159 µM); in data set [12], 32 µg/mL (≈ 79.5 µM). In addition, the “Agar Dilution MIC” value in data set [1] (strain C32) was above 128 µg/mL; in data set [1] (strain EB17), above 128 µg/mL; in [5] it was 16 µg/mL.
For `CC1=C(C(=O)O)N2C(=O)[C@@H](NC(=O)[C@H](N)c3ccccc3)[C@H]2SC1` [Cephalexin, reference compound], the MIC in data set [1] (read-out: Agar Dilution MIC, strain C32) stood at 0.125 µg/mL (≈ 0.36 µM); in data set [1] (read-out: Agar Dilution MIC, strain EB17), 0.06 µg/mL (≈ 0.173 µM); in [1] (setting [13]), 0.03 µg/mL (≈ 0.0864 µM); in [3] (read-out: Agar Dilution MIC), 2 µg/mL (≈ 5.76 µM); in data set [4] (setting [15]), 0.6 µg/mL (≈ 1.73 µM); in data set [4] (setting [16]), 0.25 µg/mL (≈ 0.72 µM). In addition, the MIC in data set [6] (setting [19]) was determined as 2 µg/mL (≈ 5.76 µM).
With `CC1(C)S[C@@H]2[C@H](NC(=O)[C@H](N)c3ccccc3)C(=O)N2[C@H]1C(=O)O` [Ampicillin, reference compound], the MIC was 8 µg/mL (≈ 22.9 µM) in [1] (setting [13]); 1 µg/mL (≈ 2.86 µM) in data set [4] (setting [15]); 4 µg/mL (≈ 11.4 µM) in [4] (setting [16]); 0.125 µg/mL (≈ 0.358 µM) in data set [6] (read-out: Agar Dilution MIC); 8 µg/mL (≈ 22.9 µM) in data set [6] (setting [21]).
